Assay results reported in patent US11654096B2 (L'OREAL, priority 2017, dated 2023).
Where “and” joins values, the source holds several entries; their conditions need not be identical. Equal entries are not always repeated.

Experiments:
Type in all cases: cell-based
[1] = tested on: normal human epidermal keratinocytes (NHEKs); test: Neosynthesis of sulfated GAGs by NHEKs, [35S]-sulfate incorporation; details: for % Control / Mean (cpm) / [35S]-Sulfate (cpm): sulfated GAGs, NHEKs; for [35S]-Sulfate (cpm): single replicates
Procedure: (§1) The effects of the compounds on the neosynthesis of total and sulfated glycosaminoglycans (GAGs) were studied on two cell models, normal human epidermal keratinocytes (NHEKs) and normal human dermal fibroblasts (NHDFs). The effects of these compounds were evaluated by measuring: • the incorporation of [3H]-glucosamine into the total GAGs neosynthesized by NHEKs and by NHDFs, • the incorporation of [35S]-sulfate into the sulfated GAGs neosynthesized by NHEKs and by NHDFs.
(§2) The keratinocytes were seeded into wells and cultured in culture medium for 24 hours. The medium was then replaced with culture medium containing or not containing (control) the compounds to be tested or the reference (4-nitrophenyl β-D-xylopyranoside at 300 μM), then the cells were incubated for 72 hours with the addition of the [3H]-glucosamine radioactive label (total GAGs) or of the [35S]-sulfate radioactive label (sulfated GAGs) for the final 24 hours of incubation.
(§3) At the end of the incubation, the glycosaminoglycans were extracted from the cells with a chaotropic buffer. The GAGs were then purified by ion exchange chromatography: adsorption of the anionic molecules on Q-Sepharose beads and desorption of the molecules of low or medium anionic nature, with a suitable solution.
(§4) The radioactivity incorporated into the molecules left on the support (GAGs, predominantly) was measured by liquid scintillation.
(§5) All the experimental conditions were performed in n=3.
(§6) The inter-group comparisons were performed using Student's non-paired two-sided t-test. The statistical analyses can be interpreted if n≥5; however, for n<5, the data calculated are provided only by way of indication.

[2] = tested on: normal human epidermal keratinocytes (NHEKs); test: Neosynthesis of total GAGs by NHEKs, [3H]-glucosamine incorporation; details: for % Control / Mean (cpm) / [3H]-glucosamine (cpm): total GAGs, NHEKs; for [3H]-glucosamine (cpm): single replicates
Procedure: as §1, §2, §3, §4, §5, §6

[3] = tested on: normal human dermal fibroblasts (NHDFs); test: Neosynthesis of total GAGs by NHDFs, [3H]-glucosamine incorporation; details: for % Control / Mean (cpm) / [3H]-glucosamine (cpm): total GAGs, NHDFs; for [3H]-glucosamine (cpm): single replicates; for effect on the neosynthesis of the total GAGs by the NHDFs (in words): tested at 10 and 100 μM
Procedure: as §1
(§7) The fibroblasts were seeded into wells and cultured in culture medium for 24 hours. The medium was then replaced with culture medium containing or not containing (controt) the compounds to be tested or the reference (TGF-β at 10 ng/ml), then the cells were incubated for 72 hours with the addition of the [35S]-sulfate radioactive label (sulfated GAGs) or of the [3H]-glucosamine radioactive label (total GAGs) for the final 24 hours of incubation.
as §3, §4, §5, §6

[4] = tested on: normal human dermal fibroblasts (NHDFs); test: Neosynthesis of sulfated GAGs by NHDFs, [35S]-sulfate incorporation; details: for % Control / Mean (cpm) / [35S]-Sulfate (cpm): sulfated GAGs, NHDFs; for [35S]-Sulfate (cpm): single replicates
Procedure: as §1, §7, §3, §4, §5, §6

O=[N+]([O-])c1ccc(O[C@@H]2OC[C@@H](O)[C@H](O)[C@H]2O)cc1 [4-Nitrophenyl β-D-xylopyranoside, 4-nitrophenyl β-D-xylopyranoside]
% Control ([1]; campaign 1, 300 μM): 922% | Mean (cpm) ([1]; campaign 1, 300 μM): 62566 cpm | [35S]-Sulfate (cpm) ([1]; campaign 1, 300 μM): 60267 cpm and 63396 cpm and 64036 cpm | % Control ([1]; campaign 2, 300 μM): 1029% | Mean (cpm) ([1]; campaign 2, 300 μM): 54615 cpm | [35S]-Sulfate (cpm) ([1]; campaign 2, 300 μM, listed as 4-Nitrophenyl B-D-xylopyranoside): 54440 cpm and 52841 cpm and 56564 cpm | % Control ([2]; campaign 1, 300 μM): 206% | Mean (cpm) ([2]; campaign 1, 300 μM): 26611 cpm | [3H]-glucosamine (cpm) ([2]; campaign 1, 300 μM): 26835 cpm and 26438 cpm and 26560 cpm | % Control ([2]; campaign 2, 300 μM): 243% | Mean (cpm) ([2]; campaign 2, 300 μM): 20694 cpm | [3H]-glucosamine (cpm) ([2]; campaign 2, 300 μM): 22239 cpm and 20953 cpm and 18891 cpm

Oc1ccc(/C=C/c2cc(O)cc(O[C@@H]3OC[C@@H](O)[C@H](O)[C@H]3O)c2)cc1 [Compound 1a, 3-hydroxy-5-[(E)-2-(4-hydroxyphenyl)ethenyl]phenyl β-D-xylopyranoside]
% Control ([3]; campaign 2, 10 μM): 108% | Mean (cpm) ([3]; campaign 2, 10 μM): 1684 cpm | [3H]-glucosamine (cpm) ([3]; campaign 2, 10 μM): 1622 cpm and 1750 cpm and 1680 cpm | % Control ([3]; campaign 2, 100 μM): 90% | Mean (cpm) ([3]; campaign 2, 100 μM): 1408 cpm | [3H]-glucosamine (cpm) ([3]; campaign 2, 100 μM): 1422 cpm and 1331 cpm and 1470 cpm | % Control ([1]; campaign 1, 10 μM): 137% | Mean (cpm) ([1]; campaign 1, 10 μM): 9319 cpm | [35S]-Sulfate (cpm) ([1]; campaign 1, 10 μM): 9304 cpm and 9522 cpm and 9131 cpm | % Control ([1]; campaign 1, 100 μM): 839% | Mean (cpm) ([1]; campaign 1, 100 μM): 56923 cpm | [35S]-Sulfate (cpm) ([1]; campaign 1, 100 μM): 53801 cpm and 56728 cpm and 60239 cpm | % Control ([1]; campaign 2, 10 μM): 217% | Mean (cpm) ([1]; campaign 2, 10 μM): 11501 cpm | [35S]-Sulfate (cpm) ([1]; campaign 2, 10 μM): 10206 cpm and 12532 cpm and 11765 cpm | % Control ([1]; campaign 2, 100 μM): 973% | Mean (cpm) ([1]; campaign 2, 100 μM): 51673 cpm | [35S]-Sulfate (cpm) ([1]; campaign 2, 100 μM): 46568 cpm and 54125 cpm and 54327 cpm | % Control ([4]; campaign 1, 10 μM): 211% | Mean (cpm) ([4]; campaign 1, 10 μM): 3472 cpm | [35S]-Sulfate (cpm) ([4]; campaign 1, 10 μM): 3286 cpm and 3573 cpm and 3557 cpm | % Control ([4]; campaign 1, 100 μM): 537% | Mean (cpm) ([4]; campaign 1, 100 μM): 8844 cpm | [35S]-Sulfate (cpm) ([4]; campaign 1, 100 μM): 8753 cpm and 8534 cpm and 9244 cpm | % Control ([4]; campaign 2, 10 μM): 221% | Mean (cpm) ([4]; campaign 2, 10 μM): 1254 cpm | [35S]-Sulfate (cpm) ([4]; campaign 2, 10 μM): 1274 cpm and 1307 cpm and 1180 cpm | % Control ([4]; campaign 2, 100 μM): 411% | Mean (cpm) ([4]; campaign 2, 100 μM): 2328 cpm | [35S]-Sulfate (cpm) ([4]; campaign 2, 100 μM): 2237 cpm and 2369 cpm and 2379 cpm | % Control ([2]; campaign 1, 10 μM): 117% | Mean (cpm) ([2]; campaign 1, 10 μM): 15165 cpm | [3H]-glucosamine (cpm) ([2]; campaign 1, 10 μM): 14440 cpm and 15184 cpm and 15871 cpm | % Control ([2]; campaign 1, 100 μM): 235% | Mean (cpm) ([2]; campaign 1, 100 μM): 30380 cpm | [3H]-glucosamine (cpm) ([2]; campaign 1, 100 μM): 30079 cpm and 29149 cpm and 31911 cpm | % Control ([2]; campaign 2, 10 μM): 134% | Mean (cpm) ([2]; campaign 2, 10 μM): 11405 cpm | [3H]-glucosamine (cpm) ([2]; campaign 2, 10 μM): 10145 cpm and 11857 cpm and 12213 cpm | % Control ([2]; campaign 2, 100 μM): 199% | Mean (cpm) ([2]; campaign 2, 100 μM): 16980 cpm | [3H]-glucosamine (cpm) ([2]; campaign 2, 100 μM): 16745 cpm and 16574 cpm and 17621 cpm

Oc1cc(O)cc(/C=C/c2ccc(O[C@@H]3OC[C@@H](O)[C@H](O)[C@H]3O)cc2)c1 [Compound 2a, 4-[(E)-2-(3,5-dihydroxy-phenyl)ethenyl]phenyl β-D-xylopyranoside]
effect on the neosynthesis of the total GAGs by the NHDFs (in words) [3]: stimulated in a concentration-dependent manner | % Control ([3]; campaign 2, 10 μM): 104% | Mean (cpm) ([3]; campaign 2, 10 μM): 1624 cpm | [3H]-glucosamine (cpm) ([3]; campaign 2, 10 μM): 1758 cpm and 1479 cpm and 1636 cpm | % Control ([3]; campaign 2, 100 μM): 126% | Mean (cpm) ([3]; campaign 2, 100 μM): 1973 cpm | [3H]-glucosamine (cpm) ([3]; campaign 2, 100 μM): 1958 cpm and 1959 cpm and 2003 cpm | % Control ([1]; campaign 2, 1 μM): 114% | Mean (cpm) ([1]; campaign 2, 1 μM): 6073 cpm | [35S]-Sulfate (cpm) ([1]; campaign 2, 1 μM): 5974 cpm and 6365 cpm and 5879 cpm | % Control ([1]; campaign 2, 10 μM): 240% | Mean (cpm) ([1]; campaign 2, 10 μM): 12748 cpm | [35S]-Sulfate (cpm) ([1]; campaign 2, 10 μM): 11209 cpm and 13332 cpm and 13703 cpm | effect on the neosynthesis of the sulfated GAGs by the NHEKs (in words) ([1]; tested at 1 and 10 μM): stimulated in a concentration-dependent manner | % Control ([4]; campaign 2, 10 μM): 141% | Mean (cpm) ([4]; campaign 2, 10 μM): 795 cpm | [35S]-Sulfate (cpm) ([4]; campaign 2, 10 μM): 765 cpm and 835 cpm and 786 cpm | % Control ([4]; campaign 2, 100 μM): 533% | Mean (cpm) ([4]; campaign 2, 100 μM): 3015 cpm | [35S]-Sulfate (cpm) ([4]; campaign 2, 100 μM): 2858 cpm and 3230 cpm and 2958 cpm | effect on the neosynthesis of the total GAGs by the NHEKs (in words) ([2]; tested at 1 and 10 μM): stimulated in a concentration-dependent manner | % Control ([2]; campaign 2, 1 μM): 120% | Mean (cpm) ([2]; campaign 2, 1 μM): 10215 cpm | [3H]-glucosamine (cpm) ([2]; campaign 2, 1 μM): 9472 cpm and 10133 cpm and 11041 cpm | % Control ([2]; campaign 2, 10 μM): 151% | Mean (cpm) ([2]; campaign 2, 10 μM): 12844 cpm | [3H]-glucosamine (cpm) ([2]; campaign 2, 10 μM): 11913 cpm and 12452 cpm and 14167 cpm

OC[C@H]1O[C@@H](Oc2cc(O)cc(/C=C/c3ccc(O)cc3)c2)[C@H](O)[C@@H](O)[C@@H]1O [Polydatin]
effect on the neosynthesis of the total GAGs by the NHDFs (in words) [3]: overall inhibited | % Control ([1]; campaign 1, 10 μM): 100% | Mean (cpm) ([1]; campaign 1, 10 μM): 6760 cpm | [35S]-Sulfate (cpm) ([1]; campaign 1, 10 μM): 6316 cpm and 6800 cpm and 7164 cpm | % Control ([1]; campaign 1, 100 μM): 119% | Mean (cpm) ([1]; campaign 1, 100 μM): 8043 cpm | [35S]-Sulfate (cpm) ([1]; campaign 1, 100 μM): 7007 cpm and 8365 cpm and 8756 cpm | effect on the neosynthesis of the sulfated GAGs by the NHEKs (in words) ([1]; tested at 10 and 100 μM): did not modulate | % Control ([4]; campaign 1, 10 μM): 96% | Mean (cpm) ([4]; campaign 1, 10 μM): 1573 cpm | [35S]-Sulfate (cpm) ([4]; campaign 1, 10 μM): 1523 cpm and 1479 cpm and 1718 cpm | % Control ([4]; campaign 1, 100 μM): 78% | Mean (cpm) ([4]; campaign 1, 100 μM): 1287 cpm | [35S]-Sulfate (cpm) ([4]; campaign 1, 100 μM): 1290 cpm and 1317 cpm and 1255 cpm | effect on the neosynthesis of the sulfated GAGs by the NHDFs (in words) ([4]; tested at 10 and 100 μM): overall inhibited | effect on the neosynthesis of the total GAGs by the NHEKs (in words) ([2]; tested at 10 and 100 μM): did not modulate | % Control ([2]; campaign 1, 10 μM): 102% | Mean (cpm) ([2]; campaign 1, 10 μM): 13202 cpm | [3H]-glucosamine (cpm) ([2]; campaign 1, 10 μM): 13405 cpm and 13192 cpm and 13010 cpm | % Control ([2]; campaign 1, 100 μM): 90% | Mean (cpm) ([2]; campaign 1, 100 μM): 11660 cpm | [3H]-glucosamine (cpm) ([2]; campaign 1, 100 μM): 12222 cpm and 11510 cpm and 11248 cpm

TGF-β: reference for the fibroblast assays, at 10 ng/ml
% Control ([3]; campaign 2, 10 ng/ml): 331% | Mean (cpm) ([3]; campaign 2, 10 ng/ml): 5167 cpm | [3H]-glucosamine (cpm) ([3]; campaign 2, 10 ng/ml): 5999 cpm and 4173 cpm and 5328 cpm | % Control ([4]; campaign 1, 10 ng/ml): 208% | Mean (cpm) ([4]; campaign 1, 10 ng/ml): 3433 cpm | [35S]-Sulfate (cpm) ([4]; campaign 1, 10 ng/ml): 3397 cpm and 3492 cpm and 3411 cpm | % Control ([4]; campaign 2, 10 ng/ml): 257% | Mean (cpm) ([4]; campaign 2, 10 ng/ml): 1452 cpm | [35S]-Sulfate (cpm) ([4]; campaign 2, 10 ng/ml): 1471 cpm and 1482 cpm and 1403 cpm
